# Test results: patent US7691416B2, “Methods of treating vascular disease” (priority 2002, dated 2010)
# System: graft infiltration by activated leukocytes
# Assay: Immunostaining and cell population analysis of the adventitia of aortic grafts
# Type: in vivo, rat
# Settings: 56 days after transplantation
# Excerpt: Animals. Male (250-350 g) Brown Norway rats (RT1^n) were used as aortic graft donors and male (250-350 g) Lewis rats (RT11) as recipients. Dawley (400-450 g) rats were used in the balloon injury model. Adult male C57BL/6, C57/S129, p21^−/− and p53^−/− null mice were purchased from Jackson Laboratory (Bar Harbor, Me.). mkk3^(−/−) null mice were generated as described Lu et al. (EMBO. 18:1845-1857 (1999)). The inos^−/− and enos^−/− mice were bred at the University of Pittsburgh. Aortic transplant model. Aortic transplantation was performed as described in Shimizu et al. (Nat. Med. 7:738-741 (2001)). Briefly, 3 to 4 cm of descending aorta was harvested from the donor and implanted between the renal arteries and the aortic bifurcation of the recipient. Both edges of the native abdominal aorta were ligated. Balloon injury model. Balloon angioplasty was carried out as described in Murakami et al. (Atherosclerosis 157:361-368 (2001)). Briefly, a 2 Fr. arterial embolectomy catheter (Baxter, Chicago, Ill.) was inserted into the common carotid artery, and injury was created by inflating the balloon to 5 atmospheres of pressure for 5 minutes. The arteries were flushed and the external carotid artery was ligated, ensuring return of blood flow through the common and internal carotid arteries. Injury of the vessel wall and subsequent pathological analysis was made in a manner that was blinded to the treatment group. CO exposure. CO was delivered to animals as described in Otterbein et al. (Nat. Med. 6:422-428 (2000)). […] In the balloon injury model, rats received either no pretreatment or were exposed to CO (250 ppm) for one hour prior to injury. Following surgery rats were housed in room air for two weeks. Cells. Primary mouse and rat smooth muscle cells (SMC) were isolated and cultured as described in Laubach et al. (Proc Natl Acad Sci USA 92:10688-9 (1995)). Mouse SMC isolated from HO-1^−/− mice were obtained as described in Duckers et al. (Nat. Med. 7:693-698 (2001)). Cell treatment and reagents. Guanylate cyclase inhibitor 1H(1,2,4) oxadiazolo(4,3-a)quinoxalin-1 (ODQ; Calbiochem-Novabiochem, San Diego, Calif.; 10-100 μM) and p38 MAPK inhibitor pyridinyl imidazol SB203580 (Calbiochem; 5-20 μM) were dissolved in DMSO. The cGMP analogue 8-bromo-cGMP sodium salt (8-Br-cGMP; Sigma-Aldrich, St. Louis, Mo.; 10-100 μM) and the PKG inhibitor (10-100 μM; Alexis Biochemicals) were dissolved in water. […] [^3H]thymidine incorporation was measured by scintillation spectroscopy and presented as mean counts/min/well. […] Areas from eight to ten captured images were calculated using digital imaging software as number of pixels corresponding to those areas. Twenty-four to forty-eight sections from each group were statistically analyzed with SPSS software version 10. […]
# [1] = adventitia of allogeneic aortic grafts
compound,measurement,setting,value
"[C-]#[O+] [CO, carbon monoxide]","Accumulation of CD45+/CD3+ T cells, inhibition versus air treated controls",[1],57±22%
same,"Accumulation of CD45+/CD68+ monocyte/macrophages, inhibition versus air treated controls",[1],65±24%
same,Expression of MHC II antigens and CD54/ICAM-1 (Mø activation),[1],inhibited
same,"Graft infiltration by activated leukocytes (CD45+), inhibition versus air treated controls","maximal effect, 700 to 1000 ppm of CO",52±20%
